Measurements from paper PMC11537999, “Identification of human pregnane X receptor antagonists utilizing a high-throughput screening platform” (Frontiers in Pharmacology, 2024).

Legend:
hPXR [1] = target: T1, hPXR (Homo sapiens, UniProt O75469); assay: PXR luciferase reporter gene assay (qHTS antagonist mode, rifampicin co-treatment) in HepG2-CYP3A4-hPXR cells; format: cell-based; details: 2 μM rifampicin, used as treatment concentration in HepaRG cells
T1 construct: expressed in transfected cells; provided by Dr. Taosheng Chen, St. Jude
T1 sequence (O75469 1-434): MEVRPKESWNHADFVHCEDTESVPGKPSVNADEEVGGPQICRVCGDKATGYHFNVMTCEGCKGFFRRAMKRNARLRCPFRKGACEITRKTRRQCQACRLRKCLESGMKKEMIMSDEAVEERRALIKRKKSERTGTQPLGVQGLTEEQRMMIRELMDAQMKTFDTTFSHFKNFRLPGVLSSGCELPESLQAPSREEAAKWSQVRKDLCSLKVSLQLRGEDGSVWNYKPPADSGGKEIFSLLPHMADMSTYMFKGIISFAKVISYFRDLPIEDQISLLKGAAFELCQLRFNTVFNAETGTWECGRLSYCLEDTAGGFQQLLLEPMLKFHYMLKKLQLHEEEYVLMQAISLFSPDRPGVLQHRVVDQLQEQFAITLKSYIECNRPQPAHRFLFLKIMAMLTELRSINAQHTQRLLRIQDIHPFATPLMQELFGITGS
Procedure: HepG2 cells stably transfected with a CYP3A4-luc promoter construct and hPXR expression plasmid were provided by Dr. Taosheng Chen (Department of Chemical Biology and Therapeutics, St. Jude Children’s Research Hospital) ([Lin et al., 2008]). Cells were thawed in EMEM (ATCC, Rockville, Maryland), supplemented with 10% Hyclone FBS (GE Healthcare Life Sciences, Logan, Utah) and 100 U/mL of Penicillin and 100 μg/mL of Streptomycin (Invitrogen, Carlsbad, CA) and kept in an incubator at 37°C and 5% CO2. To culture these HepG2-CYP3A4-hPXR cells, 500 μg/mL of Geneticin (GIBCO, Gaithersburg, MD) was added to the thawing media.
(§1) HepG2-CYP3A4-hPXR cells were dispensed into tissue culture treated 1536-well white assay plates (Greiner Bio-One North America, Monroe, NC) using a Multidrop Combi (Thermo Fisher Scientific Inc., Waltham, Massachusetts) at 2,500 cells/4 µL/well. The cell suspension was prepared using new assay media, which contained phenol red-free DMEM (GIBCO), 5% charcoal/dextran-treated FBS (Invitrogen), 1 mM sodium pyruvate (Invitrogen), 2 mM L-Glutamine (Invitrogen), and 100 U/mL of Penicillin and 100 μg/mL of Streptomycin (Invitrogen). All plates were then incubated for 4 h in a 37°C and 5% CO2 incubator. […] In the primary screen, each compound was tested at 7 concentrations ranging from 46 μM to 1.5 nM. 1 μL of rifampicin, a known PXR agonist, was also co-treated in each well, generating a final concentration of 2 μM, using a Flying Reagent Dispenser (Aurora Discovery, Carlsbad, California). All assay plates were placed in an incubator at 37°C with 5% CO2 for 23 h. Following the incubation period, 1 µL of CellTiter-Fluor reagent (Promega, Madison, Wisconsin) was added to each well and all assay plates were placed back into the incubator set at 37°C and 5% CO2 for 1 h. Fluorescence intensity at 540 nm was measured following excitation at 405 nm using a ViewLux plate reader (Perkin Elmer, Shelton, Connecticut), in order to assess cell viability following treatment. Directly after the fluorescent read, 4 μL of ONE-Glo Luciferase reagent (Promega, Madison, Wisconsin) was added to each well using a Flying Reagent Dispenser, and plates were left to sit at room temperature for 30 min. The luminescence of each plate was then measured using the ViewLux plate reader and data were expressed as relative luminescence units. Gross assay performance was assessed by calculating quality metrics, such as coefficient of variance (CV), signal-to-background ratio (S/B), and Z′ factor, a measure of statistical effect size frequently used to judge whether an assay can be scaled up to a large high-throughput screen ([Zhang et al., 1999]).
Data analysis was completed using a previously described protocol ([Huang et al., 2016]). […] Normalized percent activity for all test compounds was determined using the following equation: % activity = [(V compound - V DMSO)/(V DMSO–V pos)] × 100, where V compound denotes the compound well values, V pos denotes the median value of the positive control wells, and V DMSO denotes the median value of the DMSO-only wells. Following normalization, data points were corrected using DMSO-only plates included at the beginning and end of the compound plate stack using an in-house pattern correction algorithm in order to remove background patterns, as well as other small abnormalities within the dataset ([Southall et al., 2009]). […] Efficacy is then [a inf - a 0 ]. a=a0+ainf−a0 c^n/k^n+c^n
Curve class was further converted to curve rank by combining each class with efficacy, such that good quality, efficacious curves are assigned large absolute curve rank values. […] The activity outcome was based on the PXR antagonist readout activity and a cell viability counter screen.

hPXR [2] = target: T1, hPXR; assay: Pharmacological inhibition (IC50 shift) assay with varying rifampicin in HepG2-CYP3A4-hPXR cells; format: cell-based; details: for shift in IC50 values with increasing rifampicin (in words): 5 μM, 7.5 µM or 10 µM rifampicin; for decrease in potency: co-treated with 2 µM versus 10 µM rifampicin; for IC50: triplicate
Procedure: as §1
Each curve was co-treated with 5 μM RIF, 7.5 μM RIF, or 10 μM RIF (a well-known PXR agonist) to determine pharmacological activity. […] Each curve was generated from a combination of all data points together.

Row | SMILES | IC70 values from the original NPACT screen (hPXR [1]) | shift in IC50 values with increasing rifampicin (in words) (hPXR [2]) | decrease in potency (hPXR [2]) | IC50 (hPXR [2]; co-treated with 5 μM RIF) | IC50 (hPXR [2]; co-treated with 7.5 μM RIF) | IC50 (hPXR [2]; co-treated with 10 μM RIF)
1 | COc1cc(-c2cn(C3CCc4c(F)cccc4N(CC(F)(F)F)C3=O)nn2)ccc1-n1cnc(C)c1 (stereo not drawn) [GSM2] | 4 µM | generated a shift in IC50 values | more than 2 fold | 1.6 µM | 3.32 µM | 5.46 µM
2 | CC(=O)O[C@H]1C[C@@]2(C)[C@@H](C[C@@H](O)[C@H]3[C@@]4(C)CC[C@@H](O)[C@@H](C)[C@@H]4CC[C@@]32C)/C1=C(\CCC=C(C)C)C(=O)O [fusidic acid] | 5 µM | generated a shift in IC50 values | more than 2 fold | 3.46 µM | 4.57 µM | 7.76 µM
